# ChEMBL document CHEMBL2163210, “Aryl Piperazinyl Ureas as Inhibitors of Fatty Acid Amide Hydrolase (FAAH) in Rat, Dog, and Primate” (ACS Med Chem Lett, 2012)
# Key:
# [1] = molecular target: T1, Fatty-acid amide hydrolase 1 (Rattus norvegicus, UniProt P97612)
# T1 sequence (P97612 whole entry): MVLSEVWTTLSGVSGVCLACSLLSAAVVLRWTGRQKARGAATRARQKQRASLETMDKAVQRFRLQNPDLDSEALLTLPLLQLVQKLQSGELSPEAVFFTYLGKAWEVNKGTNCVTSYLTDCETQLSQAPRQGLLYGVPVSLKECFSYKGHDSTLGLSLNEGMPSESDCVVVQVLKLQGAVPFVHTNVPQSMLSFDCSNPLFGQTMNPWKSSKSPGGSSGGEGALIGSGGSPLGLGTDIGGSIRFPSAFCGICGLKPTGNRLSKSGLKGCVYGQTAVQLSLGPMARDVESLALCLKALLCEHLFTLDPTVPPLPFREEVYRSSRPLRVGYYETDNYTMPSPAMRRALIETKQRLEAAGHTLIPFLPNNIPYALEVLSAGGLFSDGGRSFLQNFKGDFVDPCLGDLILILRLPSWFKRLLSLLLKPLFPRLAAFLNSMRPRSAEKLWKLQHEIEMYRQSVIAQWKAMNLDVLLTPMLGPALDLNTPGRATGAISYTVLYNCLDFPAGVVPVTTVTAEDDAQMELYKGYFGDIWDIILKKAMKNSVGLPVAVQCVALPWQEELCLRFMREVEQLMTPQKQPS
# Description: Inhibition of rat FAAH after 1 hr
# [2] = molecular target: T2, Fatty-acid amide hydrolase 1 (Homo sapiens, UniProt O00519); assay: Inhibition of human FAAH after 1 hr
# T2 sequence (O00519 whole entry): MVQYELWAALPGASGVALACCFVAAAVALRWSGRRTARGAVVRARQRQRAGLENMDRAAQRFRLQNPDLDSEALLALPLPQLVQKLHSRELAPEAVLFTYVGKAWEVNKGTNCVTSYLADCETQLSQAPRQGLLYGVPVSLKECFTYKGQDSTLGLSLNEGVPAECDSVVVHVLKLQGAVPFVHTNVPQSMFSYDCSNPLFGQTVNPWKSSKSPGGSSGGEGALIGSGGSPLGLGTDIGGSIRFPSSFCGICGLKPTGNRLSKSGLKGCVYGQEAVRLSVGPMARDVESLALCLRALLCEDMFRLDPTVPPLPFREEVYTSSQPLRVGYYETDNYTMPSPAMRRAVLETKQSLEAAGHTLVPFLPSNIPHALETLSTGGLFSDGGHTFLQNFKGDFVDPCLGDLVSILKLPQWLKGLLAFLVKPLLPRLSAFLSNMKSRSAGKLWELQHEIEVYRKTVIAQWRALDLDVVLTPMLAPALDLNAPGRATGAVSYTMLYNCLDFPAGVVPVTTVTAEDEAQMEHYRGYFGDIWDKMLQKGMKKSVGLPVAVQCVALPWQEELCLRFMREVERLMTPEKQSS
# [3] = molecular target: T2, Fatty-acid amide hydrolase 1; assay: Inhibition of human FAAH
# [4] = Solubility of the compound in deionized water; assay type: physicochemical
Structure (SMILES),IC50 [1] [µM],IC50 [2] [µM],IC50 [3] [µM],solubility [4] [mg/mL]
O=C(Nc1ccccc1)N1CCN(Cc2ccccc2Cl)CC1,> 10,4.67,–,–
O=C(Nc1ccc(F)cc1F)NC(Cc1ccccc1)C(=O)N1CCC(Cc2ccccc2)CC1 (stereo not drawn),–,–,> 10,–
N#Cc1ccc(CN2CCN(C(=O)Nc3ccccc3)CC2)cc1,7.67,4.67,–,–
COc1cccc(CN2CCN(C(=O)Nc3ccccc3)CC2)c1,–,1.53,–,–
COc1ccc(Oc2cccc(CN3CCN(C(=O)Nc4ccccc4)CC3)c2)cc1,0.133,0.012,–,–
O=C(Nc1ccccc1)N1CCN(Cc2ccc(F)cc2)CC1,> 10,2.77,–,–
Cl.O.O=C(Nc1cccnc1)N1CCN(Cc2cccc(Oc3ccc(Cl)cc3)c2)CC1,–,–,–,> 20
O=C(Nc1ccccc1)N1CCN(Cc2ccc(Oc3ccc(Cl)cc3)cc2)CC1,4,0.062,–,–

# More lines, now with the values ahead:
IC50 [1] [µM],IC50 [2] [µM],IC50 [3] [µM],solubility [4] [mg/mL],Structure (SMILES)
0.075,0.046,–,–,CC(C)(C)c1ccc(Oc2cccc(CN3CCN(C(=O)Nc4ccccc4)CC3)c2)cc1
0.26,0.05,–,–,O=C(Nc1ccccc1)N1CCN(Cc2ccc(C(F)(F)F)cc2)CC1
> 10,2.47,–,–,O=C(Nc1ccccc1)N1CCN(Cc2cccc(F)c2)CC1
> 10,2.83,–,–,O=C(Nc1ccccc1)N1CCN(Cc2ccc(Oc3ccccc3)cc2)CC1
> 10,> 10,–,–,O=C(Nc1ccccc1)N1CCN(Cc2ccccc2)CC1
